According to ChEMBL document CHEMBL5346941, “Design, synthesis and evaluation of novel monoamine oxidase B (MAO-B) inhibitors with improved pharmacokinetic properties for Parkinson's disease” (Eur J Med Chem, 2023):
The source made the active and inactive calls. The calls are words filed in the database; no cut-off is given here.

How the values were obtained:
[1] = AUC (0 to t) in fasted Sprague-Dawley rat at 1 mg/kg, iv measured for 24 hrs; format: ADME, organism-based; set-up: dose 1 mg/kg, time 24 hrs, route iv; conditions: in vivo
[2] = test system: Mus musculus; assay: Anti-parkinson activity in C57BL/6 mouse model of MPTP-induced dopamine deficits assessed as increase in dopamine concentration in striatum at 1 to 3 mg/kg, ip pretreated for 30 mins followed by MPTP addition and measured after 5 days by HPLC analysis; format: functional, organism-based; conditions: dose 1-3 mg/kg, time 120.5 hrs
[3] = Drug concentration in Sprague-Dawley rat plasma at 5 mg/kg, ip measured after 60 mins by LC-MS/MS analysis; format: ADME, organism-based
[4] = Metabolic stability in dog liver microsomes assessed as intrinsic clearance at 1 uM incubated for 60 mins in presence of NADPH by LC-MS/MS analysis; format: ADME, Canis lupus familiaris, Microsome; conditions: read-out: CLH
[5] = biological target: Voltage-gated inwardly rectifying potassium channel KCNH2 (Homo sapiens, UniProt Q12809); assay: Inhibition of hERG transfected in CHO-K1 cells at -80 mV holding potential incubated for 2 mins by patch clamp assay; format: toxicity, cell-based
Chain of Voltage-gated inwardly rectifying potassium channel KCNH2 (Q12809 whole entry): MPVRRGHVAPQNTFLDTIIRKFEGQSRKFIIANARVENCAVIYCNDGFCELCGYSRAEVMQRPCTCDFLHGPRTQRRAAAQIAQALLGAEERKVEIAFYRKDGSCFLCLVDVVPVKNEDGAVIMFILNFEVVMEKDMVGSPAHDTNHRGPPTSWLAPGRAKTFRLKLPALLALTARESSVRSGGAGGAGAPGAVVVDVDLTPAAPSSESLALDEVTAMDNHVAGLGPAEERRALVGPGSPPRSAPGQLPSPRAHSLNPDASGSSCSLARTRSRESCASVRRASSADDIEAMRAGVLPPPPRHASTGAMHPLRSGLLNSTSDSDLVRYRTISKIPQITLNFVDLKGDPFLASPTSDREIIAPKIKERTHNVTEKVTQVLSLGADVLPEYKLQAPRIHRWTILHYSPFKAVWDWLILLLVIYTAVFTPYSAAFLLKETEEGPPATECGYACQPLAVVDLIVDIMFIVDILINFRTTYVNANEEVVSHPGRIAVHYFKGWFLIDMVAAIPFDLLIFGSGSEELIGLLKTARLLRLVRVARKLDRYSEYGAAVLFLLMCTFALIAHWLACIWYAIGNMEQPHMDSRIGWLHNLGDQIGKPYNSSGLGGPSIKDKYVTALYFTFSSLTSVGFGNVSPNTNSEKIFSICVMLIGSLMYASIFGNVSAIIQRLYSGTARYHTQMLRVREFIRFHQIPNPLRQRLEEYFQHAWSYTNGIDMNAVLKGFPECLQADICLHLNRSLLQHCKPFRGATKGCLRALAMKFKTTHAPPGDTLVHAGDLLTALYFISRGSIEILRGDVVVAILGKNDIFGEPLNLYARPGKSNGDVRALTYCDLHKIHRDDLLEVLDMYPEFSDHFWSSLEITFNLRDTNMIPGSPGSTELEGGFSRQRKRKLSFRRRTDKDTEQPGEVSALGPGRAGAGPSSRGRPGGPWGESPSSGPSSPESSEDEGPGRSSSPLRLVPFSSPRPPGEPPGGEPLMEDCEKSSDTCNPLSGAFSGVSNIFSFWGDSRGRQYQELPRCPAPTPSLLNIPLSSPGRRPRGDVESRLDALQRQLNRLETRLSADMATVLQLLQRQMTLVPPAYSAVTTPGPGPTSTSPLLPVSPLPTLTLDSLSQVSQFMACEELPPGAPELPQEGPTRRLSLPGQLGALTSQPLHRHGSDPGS

[6] = Ratio of drug concentration in Sprague-Dawley brain to plasma at 5 mg/kg, ip measured after 120 mins by LC-MS/MS analysis; format: ADME, organism-based; conditions: rat, read-out: BPR
[7] = biological target: T1, Amine oxidase [flavin-containing] B (Homo sapiens, UniProt P27338); assay: Inhibition of recombinant human MAO-B expressed in Sf9 cells using p-tyramine as substrate preincubated for 15 mins followed by substrate addition and measured after 60 mins by luciferin based luminescence analysis
T1 sequence (P27338 whole entry): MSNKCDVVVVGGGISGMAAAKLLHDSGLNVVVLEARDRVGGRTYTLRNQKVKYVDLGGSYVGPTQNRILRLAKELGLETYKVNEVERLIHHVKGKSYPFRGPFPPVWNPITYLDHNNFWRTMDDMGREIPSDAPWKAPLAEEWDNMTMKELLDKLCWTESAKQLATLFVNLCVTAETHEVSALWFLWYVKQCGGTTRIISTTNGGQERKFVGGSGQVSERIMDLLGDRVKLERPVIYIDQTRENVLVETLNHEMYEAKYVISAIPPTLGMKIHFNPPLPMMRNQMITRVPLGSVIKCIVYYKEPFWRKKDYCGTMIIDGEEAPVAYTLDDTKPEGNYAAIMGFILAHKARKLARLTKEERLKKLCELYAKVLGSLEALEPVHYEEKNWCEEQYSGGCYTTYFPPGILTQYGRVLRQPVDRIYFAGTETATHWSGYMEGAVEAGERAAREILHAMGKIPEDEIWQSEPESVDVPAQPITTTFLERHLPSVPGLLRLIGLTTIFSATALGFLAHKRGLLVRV

[8] = Protein binding in human plasma at 1 uM incubated for 5 hrs by LC-MS/MS based rapid equilibrium dialysis method; format: ADME, cell-free; conditions: read-out: PPB (converted)
[9] = AUC (0 to t) in fasted ICR mouse at 2 mg/kg, iv measured for 24 hrs; format: ADME, organism-based; set-up: dose 2 mg/kg, time 24 hrs, route iv; conditions: in vivo
[10] = Cmax in fasted ICR mouse at 5 mg/kg, IG measured for 24 hrs; format: ADME, organism-based; set-up: dose 5 mg/kg, time 24 hrs, route ig; conditions: in vivo, po
[11] = Elimination half life in fasted Sprague-Dawley rat at 5 mg/kg, IG measured for 24 hrs; format: ADME, organism-based; conditions: in vivo, po, read-out: beta t1/2 (converted)
[12] = Metabolic stability in rat liver microsomes assessed as intrinsic clearance at 1 uM incubated for 60 mins in presence of NADPH by LC-MS/MS analysis; format: ADME, Microsome; conditions: read-out: CLH
[13] = Drug concentration in Sprague-Dawley rat brain at 5 mg/kg, ip measured after 60 mins by LC-MS/MS analysis; format: ADME, organism-based; conditions: read-out: Ct
[14] = test system: Mus musculus; assay: Anti-parkinson activity in MPTP-induced dopamine deficit C57BL/6 mouse model assessed as increase in dopamine concentration in striatum at 3 to 10 mg/kg, ip pretreated with MPTP for 4 hrs followed by compound administration for 5 times once every 4 hrs further incubated with L-dopa at 50 mg/kg for 30 mins prior to last dose and measured after 30 mins by HPLC analysis; format: functional, organism-based; conditions: dose 3-10 mg/kg, time 16.5 hrs
[15] = Cmax in fasted ICR mouse at 2 mg/kg, iv measured for 24 hrs; format: ADME, organism-based; set-up: time 24 hrs, dose 2 mg/kg, route iv; conditions: in vivo
[16] = Metabolic stability in rat liver microsomes assessed as half life at 1 uM incubated for 60 mins in presence of NADPH by LC-MS/MS analysis; format: ADME, Microsome
[17] = Drug concentration in Sprague-Dawley rat plasma at 5 mg/kg, ip measured after 15 mins by LC-MS/MS analysis; format: ADME, organism-based
[18] = biological target: T2, Amine oxidase [flavin-containing] A (Homo sapiens, UniProt P21397); assay: Inhibition of recombinant human MAO-A expressed in Sf9 cells using […] as substrate preincubated for 15 mins followed by substrate addition and measured after 60 mins by luciferin based luminescence analysis
T2 sequence (P21397 whole entry): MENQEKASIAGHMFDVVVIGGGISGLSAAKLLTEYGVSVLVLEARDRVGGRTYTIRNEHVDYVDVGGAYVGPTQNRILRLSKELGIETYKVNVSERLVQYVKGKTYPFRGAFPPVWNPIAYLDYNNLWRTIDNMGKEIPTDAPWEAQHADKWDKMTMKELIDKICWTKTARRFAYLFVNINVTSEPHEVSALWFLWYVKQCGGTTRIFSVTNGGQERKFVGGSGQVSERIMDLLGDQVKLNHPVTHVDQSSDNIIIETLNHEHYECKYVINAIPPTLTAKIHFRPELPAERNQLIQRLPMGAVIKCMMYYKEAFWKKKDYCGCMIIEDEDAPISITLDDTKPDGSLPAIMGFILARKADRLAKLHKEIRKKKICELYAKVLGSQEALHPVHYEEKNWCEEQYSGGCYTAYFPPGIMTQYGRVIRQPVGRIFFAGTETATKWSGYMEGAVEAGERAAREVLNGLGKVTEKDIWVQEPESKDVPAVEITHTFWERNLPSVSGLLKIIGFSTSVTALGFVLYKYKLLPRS

[19] = biological target: CYP3A4 (Homo sapiens, UniProt P08684); assay: Inhibition of CYP3A4 in human liver microsomes using midazolam as substrate at 10 uM incubated for 5 mins in presence of NADPH by LC-MS/MS analysis relative to control; format: ADME, Microsome; conditions: probe midazolam
Chain of CYP3A4 (P08684 whole entry): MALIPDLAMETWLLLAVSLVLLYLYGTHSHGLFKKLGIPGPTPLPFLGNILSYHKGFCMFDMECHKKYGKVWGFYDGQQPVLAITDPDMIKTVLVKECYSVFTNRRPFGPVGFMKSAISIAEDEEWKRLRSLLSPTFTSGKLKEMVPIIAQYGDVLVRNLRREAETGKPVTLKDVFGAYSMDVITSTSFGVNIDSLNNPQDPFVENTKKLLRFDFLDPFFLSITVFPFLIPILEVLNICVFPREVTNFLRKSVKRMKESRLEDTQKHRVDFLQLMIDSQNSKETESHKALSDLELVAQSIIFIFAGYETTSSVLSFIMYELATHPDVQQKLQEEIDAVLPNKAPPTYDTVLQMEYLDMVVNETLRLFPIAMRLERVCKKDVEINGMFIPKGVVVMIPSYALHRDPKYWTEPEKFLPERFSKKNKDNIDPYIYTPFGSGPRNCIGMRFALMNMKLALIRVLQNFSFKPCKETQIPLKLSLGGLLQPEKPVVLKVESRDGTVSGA

[20] = Cmax in fasted Sprague-Dawley rat at 1 mg/kg, iv measured for 24 hrs; format: ADME, organism-based; set-up: dose 1 mg/kg, time 24 hrs, route iv; conditions: Sprague-Dawley, in vivo, read-out: Cmax

NC(=O)[C@@H]1C[C@H](F)CN1Cc1ccc2oc(-c3ccc(F)cc3)cc2c1
AUC(0-t) at 24 h [1]: 305 ng·h/mL
Activity [2]: Active
concentration at 1 h [3]: 540 ng/mL
CLint scaled at 1 µM [4]: 7.5 mL/min/kg
IC50 [5]: > 30 µM
Kp at 2 h [6]: 15.5
IC50 [7]: 0.037 µM
fraction unbound at 5 h, 1 µM [8]: 0.0058
AUC(0-t) at 24 h [9]: 2680 ng·h/mL
Cmax [10]: 913 ng/mL
half-life [11]: 4.22 h
CLint scaled at 1 µM [12]: 10.1 mL/min/kg
concentration at 1 h [13]: 8750 ng/g
Activity [14]: Active
Cmax [15]: 900 ng/mL
half-life at 1 µM [16]: 1.48 h
concentration at 0.25 h [17]: 536 ng/mL
IC50 [18]: > 10 µM
inhibition at 5 min, 10 µM [19]: -45.2%
Cmax [20]: 273 ng/mL
